This note sets out measurements from patent publication US20150218172A1, “Pyrrolo[2,3-D]Pyrimidine Tropomyosin-Related Kinase Inhibitors” (PFIZER LIMITED, priority 2012, published 2015).

The experiment has as its target T1, TrkA (Homo sapiens, UniProt P04629).
T1 construct: aa 441-796; His; purchased Invitrogen PV3144
In words: Isolated TRK enzyme assay (HTRF KinEASE-TK kit), PV3144 TrkA enzyme assay. The following applies: PV3144 TrkA enzyme assay, recombinant His-tagged cytoplasmic domain aa 441-796, 4 nM enzyme, 40 uM ATP; arithmetic mean where more than one reading; read-out: Trka enzyme (IC50). The experiment is classed as biochemical. The procedure:
Isolated TRK Enzyme assays use the HTRF KinEASE-TK kit (Cisbio Cat#62TK0PEJ) with recombinant His-tagged cytoplasmic domains of each TRK receptor sourced from Invitrogen (see table below). This activity-assay measures the phosphorylation of tyrosine residues within a substrate from the HTRF kit which has been validated by Cisbio for a variety of tyrosine kinases including the TRK receptors.
0.5 mM stock solutions of test compounds are prepared and serially diluted in 100% DMSO. A standard curve using the compound of Example 135 disclosed in WO2005/116035 of 150 uM is also prepared on each test plate. High percentage effect (HPE) is defined by 150 uM (using the compound of Example 135 as disclosed in WO2005/116035) and 0% effect (ZPE) is defined by 100% DMSO. Greiner low volume black plates containing 0.2 ul of serially diluted compound, standard and HPE/ZPE are created using the Bravo nanolitre dispenser.
1X enzyme buffer is prepared from 5X Enzymatic Buffer from the Cisbio KinEASE TK kit using MilliQ water. The buffer is then supplemented with 10 mM MgCl and 2 mM DTT (both from Sigma). In the case of TRKB, the buffer is also supplemented with 125 nM Supplement Enzymatic Buffer (SEB) from the Cisbio kit.
2X FAC of enzyme and 2X FAC ATP diluted in 1X complete enzyme buffer is incubated at room temperature for 20 minutes to preactivate the enzyme. Following this preactivation step, 5 ul/well of enzyme+ATP mix is added using a Multidrop Micro to the assay plate, spotted with 0.2 ul 100% DMSO compound. This is left for 20 mins at room temperature before adding 5 ul of 2 uM TK-substrate-Biotin (from the Cisbio kit) diluted in 1X enzyme buffer (1 uM FAC) using the Multidrop Micro. The reaction is incubated at room temperature for the optimized assay reaction time (see table). The reaction is stopped by adding 10 ul/well HTRF Detection Buffer containing 0.25 uM Streptavidin-XL665 (0.125 uM FAC) and 1:200 TK Antibody-Cryptate using a Multidrop.
After the Detection Reagent addition, plates are covered and incubated at room temperature for 60 minutes. HTRF signal is read using an Envision reader, measured as a ratio of emissions at two different wavelengths, 620 nm and 665 nm. […] Test compound data are expressed as percentage inhibition defined by HPE and ZPE values for each plate. Percentage inhibition in the presence of test compound is plotted against compound concentration on a log scale to determine an IC50 from the resultant sigmoid curve.
Below are TrkA IC50 data generated using the PV3144 TrkA enzyme assay. Where more than one reading was taken, the arithmetic mean is presented.

T1 sequence (P04629 441-796): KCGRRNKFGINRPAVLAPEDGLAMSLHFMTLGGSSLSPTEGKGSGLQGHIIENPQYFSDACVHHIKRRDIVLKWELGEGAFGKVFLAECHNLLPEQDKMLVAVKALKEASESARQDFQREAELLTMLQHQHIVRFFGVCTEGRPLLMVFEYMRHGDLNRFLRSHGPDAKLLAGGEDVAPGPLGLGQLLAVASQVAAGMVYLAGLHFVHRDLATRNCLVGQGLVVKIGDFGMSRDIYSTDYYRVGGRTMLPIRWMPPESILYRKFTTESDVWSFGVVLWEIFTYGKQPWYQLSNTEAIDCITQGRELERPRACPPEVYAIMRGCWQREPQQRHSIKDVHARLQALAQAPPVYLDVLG

Turning to `Cc1cc(C(F)(F)F)nn1CC(=O)Nc1ccnc(C(=O)c2cn([C@H](C)CO)c3ncncc23)c1` [Example 21, N-[2-({7-[(2R)-1-hydroxypropan-2-yl]-7H-pyrrolo[2,3-d]pyrimidin-5-yl}carbonyl)pyridin-4-yl]-2-[5-methyl-3-(trifluoromethyl)-1H-pyrazol-1-yl]acetamide], the IC50 was found to be 95.8 nM.

For `CC(CO)n1cc(C(=O)c2ccnc(NC(=O)Cc3ccc(C#N)cc3)c2)c2cncnc21` (single isomer, unassigned) [Example 33, 2-(4-cyanophenyl)-N-(4-{[7-(1-hydroxypropan-2-yl)-7H-pyrrolo[2,3-d]pyrimidin-5-yl]carbonyl}pyridin-2-yl)acetamide], the concentration for half-maximal inhibition (IC50) is 2560 nM.

As for `Cc1cc(C(F)(F)F)nn1CC(=O)Nc1cc(C(=O)c2cn(C(C)C)c3nc(N)ncc23)ccn1` [Example 46, N-(4-{[2-amino-7-(propan-2-yl)-7H-pyrrolo[2,3-d]pyrimidin-5-yl]carbonyl}pyridin-2-yl)-2-[5-methyl-3-(trifluoromethyl)-1H-pyrazol-1-yl]acetamide], the half-inhibitory concentration (IC50) came to 4.69 nM.

For the compound `C[C@H](CO)n1cc(C(=O)c2cc(NC(=O)Cc3ccc(Cl)cc3)ccn2)c2cncnc21` [Example 28, 2-(4-chlorophenyl)-N-[2-({7-[(2R)-1-hydroxypropan-2-yl]-7H-pyrrolo[2,3-d]pyrimidin-5-yl}carbonyl)pyridin-4-yl]acetamide], the IC50 was 111 nM.

As for `CC(C)n1cc(C(=O)c2cc(NC(=O)Cn3ccc(C4CC4)n3)ccn2)c2cncnc21` [Example 83, 2-(3-cyclopropyl-1H-pyrazol-1-yl)-N-(2-{[7-(propan-2-yl)-7H-pyrrolo[2,3-d]pyrimidin-5-yl]carbonyl}pyridin-4-yl)acetamide], the IC50 is 10.2 nM.

On to `O=C(Cc1cccc(Cl)c1)Nc1cc(C(=O)c2cn(CCO)c3ncncc23)ccn1` [Example 146, 2-(3-chlorophenyl)-N-(4-{[7-(2-hydroxyethyl)-7H-pyrrolo[2,3-d]pyrimidin-5-yl]carbonyl}pyridin-2-yl)acetamide], for which the half-inhibitory concentration (IC50) stood at 246 nM.

Regarding `CC(C)n1cc(C(=O)c2ccnc(NC(=O)Cc3cccc(OC(F)(F)F)c3)c2)c2cncnc21` [Example 154, N-(4-{[7-(propan-2-yl)-7H-pyrrolo[2,3-d]pyrimidin-5-yl]carbonyl}pyridin-2-yl)-2-[3-(trifluoromethoxy)phenyl]acetamide], the half-inhibitory concentration (IC50) was found to be 12.4 nM.

Take `CC(C)n1cc(C(=O)c2ccnc(NC(=O)Cc3ccc(OC4CC4)cc3)c2)c2cncnc21` [Example 72, 2-[4-(cyclopropyloxy)phenyl]-N-(4-{[7-(propan-2-yl)-7H-pyrrolo[2,3-d]pyrimidin-5-yl]carbonyl}pyridin-2-yl)acetamide]: the IC50 worked out at 117 nM.

As for `Cc1cc(C)n(CC(=O)Nc2cc(C(=O)c3cn(CC(C)(C)O)c4ncncc34)ccn2)n1` [Example 127, 2-(3,5-dimethyl-1H-pyrazol-1-yl)-N-(4-{[7-(2-hydroxy-2-methylpropyl)-7H-pyrrolo[2,3-d]pyrimidin-5-yl]carbonyl}pyridin-2-yl)acetamide], the IC50 is 1110 nM.

Consider `CC(C)(CO)n1cc(C(=O)c2ccc(C#N)c(NC(=O)Cc3ccc(Cl)cn3)c2)c2cnc(N)nc21` [Example 8, N-(5-{[2-amino-7-(1-hydroxy-2-methylpropan-2-yl)-7H-pyrrolo[2,3-d]pyrimidin-5-yl]carbonyl}-2-cyanophenyl)-2-(5-chloropyridin-2-yl)acetamide], for which the IC50 came out at 32 nM.

As for `CC(C)(C)n1cc(C(=O)c2cc(NC(=O)Cc3cccc(S(C)(=O)=O)c3)ccn2)c2cncnc21` [Example 38, N-{2-[(7-tert-butyl-7H-pyrrolo[2,3-d]pyrimidin-5-yl)carbonyl]pyridin-4-yl}-2-[3-(methylsulfonyl)phenyl]acetamide], the IC50 came out at 9.61 nM.

Consider `O=C(Cc1ccc(OC(F)(F)F)cc1)Nc1cc(C(=O)c2cn(CCO)c3ncncc23)ccn1` [Example 144, N-(4-{[7-(2-hydroxyethyl)-7H-pyrrolo[2,3-d]pyrimidin-5-yl]carbonyl}pyridin-2-yl)-2-[4-(trifluoromethoxy)phenyl]acetamide], for which the IC50 turned out to be 111 nM.

What is called IC50 is the midpoint of a concentration-inhibition curve.
